“Also recorded” adds a separate entry of the source.
Experiments:
Format in all cases: cell-based, human
[1] = tested on: LNCaP prostate epithelial cells; experiment: Proliferation assay (cell counts), LNCaP
Experimental: (§1) Proliferation assays. Cellular proliferation was assessed after plating cells at 50 000 cell/well in triplicate in six-well plates and counting cells after 24 and 96 h of incubation in complete media, serum-free media or serum-free prostate stromal fibroblast conditioned media, as described previously (Macoska J A, et al., (2004) Cancer Genet. Cytogenet. 154, 36-43; incorporated herein by reference in its entirety). Averages and standard deviations of cell number were calculated for each time point under each media condition. To assess the effects of exogenous CXCL12 on cellular proliferation, recombinant human SDF1 alpha/CXCL12 (R & D Systems, 350-NS) was added at the desired concentration in 1 mL SF HIE (or 1 mL SF HIE alone for control) to each well. The cells were counted at 24 and 96 h growth and re-fed at 48 and 72 h growth. Cell counts were normalized to 50 000 cells at 24 h to account for any plating discrepancies.
(§2) Proliferation Assays. Cellular proliferation was assessed after plating cells at 50,000 cell/well in triplicate in six well plates and counting cells after 24 and 96 hours of incubation as described previously (see, e.g., Macoska J A, et al., 2004 Cancer Genet. Cytogenet. 154, 36-43; incorporated herein by reference in its entirety). To assess the effects of exogenous CXCL12 on cellular proliferation, recombinant human SDF1 alpha/CXCL12 (R&D Systems, 350-NS) was added at the desired concentration in 1 ml SF HIE (or 1 ml SF HIE alone for control) to each well. The cells were re-fed at 48 and 72 hours growth and counted at 24 and 96 hours growth. Cell counts were normalized to 50,000 cells at 24 hours to account for any plating discrepancies. Averages and standard deviations of cell number were calculated for each time point under each media condition. Experiments utilizing U0126 were performed as above, except that cells were treated after plating for 2 hours with either DMSO (vehicle) or 5 uM U0126 before addition of CXCL12. Cells were maintained in media containing DMSO or U0126 for the entirety of the experiment. For the antibody blockade experiments, cells were plated at 10,000 cells per well in triplicate in 24 well dishes and pre-incubated with mouse IgG2aκ (BD Pharmingen 555571) or mouse anti-CXCR4 (BD Pharmingen 555971) at 1 ug/ml for 1 hour prior to CXCL12 addition. Cells were maintained in media containing appropriate antibodies for the entirety of the experiment, and cells were counted at 24 and 96 hours as above.
(§3) Proliferation Assays. Cellular proliferation was assessed after plating cells at 50,000 cell/well in triplicate in six well plates and counting cells after 24 and 96 hours of incubation as described previously (see, e.g., Begley L, et al., Genes Chromosomes Cancer. 2006 February; 45(2): 136-46; herein incorporated by reference in its entirety). To assess the effects of exogenous CXCL5 on cellular proliferation, recombinant human CXCL5 (R&D Systems, 254-X) was added at the desired concentration in 2 ml SF media (or 2 ml SF media alone for control) to each well. The cells were re-fed at 24 hours growth and counted at 24 and 96 hours growth. Cell counts were normalized to 50,000 cells at 24 hours to account for any plating discrepancies. Averages and standard deviations of cell number were calculated for each time point under each media condition. For the antibody blockade experiments, 10,000 cells per well were plated in triplicate in 24 well dishes and preincubated with mouse anti-human CXCR2 (Biosource AHR1532X) or mouse antihuman CXCR4 (BD Pharmingen 555971) at 1 ug/ml for 1 hour prior to CXCL5 addition. Cells were maintained in media containing appropriate antibodies for the entirety of the experiment and were counted at 24 and 96 hours as above.

[2] = tested on: N15C6 prostate epithelial cells; experiment: Proliferation assay (cell counts), N15C6
Experimental: as §1, §2, §3

[3] = tested on: EGR1 gene transcript; experiment: Quantitative real-time PCR, EGR1 in N15C6 cells
Experimental: Quantitative Real-Time PCR. All quantitative real-time assays were conducted with an Applied Biosystems 7900HT instrument and reagents. Cells were grown to 70% confluence in […] dishes prior to RNA purification using the Trizol reagent (Invitrogen Life Technologies). Experiments utilizing U0126 were performed as above, except that cells were treated with DMSO (vehicle) or 5 uM U0126 for 2 hours, then grown in the presence or absence of CXCL12. For all experiments, one microgram of RNA was reverse transcribed by use of Superscript III reverse transcriptase (Invitrogen, Carlsbad, Calif.). The resulting cDNA was diluted 1:100. Real-time PCR was performed by use of Assays on Demand (Applied BioSystems, Foster City, Calif.) according to the manufacturer's instructions, except that Real Time Ready with Rox passive dye (QBioGene, Carlsbad, Calif.) was used in place of TaqMan Universal PCR Master Mix. […] Cycle numbers to threshold were calculated by subtracting averaged control from averaged experimental values, and Fold Gene Expression was calculated by raising […]. […]
Quantitative Real-Time PCR. All quantitative real-time assays were conducted as previously described with an Applied Biosystems 7900HT instrument and reagents (see, e.g., Begley L A, et al., J Biol. Chem. 2007 Sep. 14; 282(37):26767-74; herein incorporated by reference in its entirety). […]

[4] = add back of exogenous chemokine, 96 hours

Molecule | effect on proliferative response to CXCL12 ([1]; co-treatment with U0126 (5 uM), 50 pM CXCL12) | effect of U0126 on the effect of CXCL5 (anticipated) ([1]; stated as anticipated) | effect on proliferative response to CXCL12 ([2]; 1.0 uM U0126 with 1 pM, 10 pM or 100 pM CXCL12, compared to DMSO) | effect on proliferative response to CXCL12 ([2]; 5.0 uM U0126 in 0.05% DMSO) | effect of U0126 on the effect of CXCL5 (anticipated) ([2]; stated as anticipated) | cellular proliferation in the absence of CXCL12 ([2]; treatment with U0126) | effect on CXCL12-stimulated EGR1 gene transcription ([3]; 5 uM U0126 for 2 hours, then 10 pM CXCL12) | proliferation versus SF media alone ([1]; 0.001-1 nM CXCL5, p<0.05) | effect of CXCL5 on proliferation ([1]; CXCL5 1-10 pM) | cell proliferation compared to serum-free (SF HIE) media alone [1, 4] | CXCL5 concentrations that inhibited proliferation [2] | CXCL5 concentrations that stimulated proliferation [2] | proliferation versus SF media alone ([2]; 0.001-1 nM CXCL5, p<0.05) | proliferation in response to CXCL5 compared with CXCL12 ([2]; FIG. 8) | cell proliferation compared to serum-free (SF HIE) media alone [2, 4] | EGR1 transcript versus vehicle-treated cells ([3]; 1-100 pM CXCL5)
N#CC(=C(/N)Sc1ccccc1N)/C(C#N)=C(\N)Sc1ccccc1N [U0126] | not affected | will inhibit | nearly ablated | nearly ablated | will inhibit | diminished | ablated; also recorded: further dampens | – | – | – | – | – | – | – | – | –
CXCL5: recombinant human CXCL5 (R&D Systems, 254-X), CXC-type chemokine | – | – | – | – | – | – | – | significantly higher | did not stimulate | stimulate | > 100 µM | 1 to 10 pM | significantly higher | equivalently | stimulate | 4- to 8 fold
